# Results reported in patent US20250333440A1, “Azole Tripeptides as Vasodilators” (University of Kansas, priority 2024, published 2025).
# B1: ANG-1 protein: ANG-1 protein (Gibco) (protein, UniProt Q15389 16-498, looked up)
# Angiopoietin-1: HIGCSNQRRSPENSGRRYNRIQHGQCAYTFILPEHDGNCRESTTDQYNTNALQRDAPHVEPDFSSQKLQHLEHVMENYTQWLQKLENYIVENMKSEMAQIQQNAVQNHTATMLEIGTSLLSQTAEQTRKLTDVETQVLNQTSRLEIQLLENSLSTYKLEKQLLQQTNEILKIHEKNSLLEHKILEMEGKHKEELDTLKEEKENLQGLVTRQTYIIQELEKQLNRATTNNSVLQKQQLELMDTVHNLVNLCTKEGVLLKGGKREEEKPFRDCADVYQAGFNKSGIYTIYINNMPEPKKVFCNMDVNGGGWTVIQHREDGSLDFQRGWKEYKMGFGNPSGEYWLGNEFIFAITSQRQYMLRIELMDWEGNRAYSQYDRFHIGNEKQNYRLYLKGHTGTAGKQSSLILHGADFSTKDADNDNCMCKCALMLTGGWWFDACGPSNLNGMFYTAGQNHGKLNGIKWHYFKGPSYSLRSTTMMIRPLDF
# What was measured:
# chicken embryos = assay type: in vivo, Brown Leghorn chicken embryos; parameters: embryo survival: unit of the concentration uncertain; settings: for embryos that survived: 40 μM dose; for embryos that survived / embryo survival: 24 h; for embryo survival: 40 (unit uncertain) dose
# Method: (§1) At day 2, the egg was carefully cleaned with isopropanol again and a small opening was carved near its air sac through which approximately 3 mL of albumin was removed. The opening was sealed with medical tape and a larger square opening of approximately 1×1 cm was carved near the center of the egg using a Dremer Stylo+ tool. The egg was further cleaned in order to remove debris and the eggshell membrane was carefully removed using sterilized tweezers. The opening was sealed using clear tape and the eggs were incubated for four more days under the same conditions after disabling the auto-turning mechanism of the incubator.
# (§2) The tape covering the opening in the egg was carefully removed and the disc was carefully placed on top of the chorioallantoic membrane (e.g., CAM) using sterilized tweezers, then the opening was resealed, and the eggs were placed again in the incubator.
# The protocol included DMSO as a negative control and Razuprotafib as a positive control. The protocol also included the heptapeptide NLLMAAS as a negative control, which is an orthosteric antagonist of ANG-1.
# blood vessels in the CAM [1] = assay: chick chorioallantoic membrane assay (CAM), vasculature analysed with NIH ImageJ; assay type: in vivo, Brown Leghorn chicken embryos; settings: for effect on vascular density (VD) compared to DMSO control / effect on vessel diameter compared to DMSO control / effect on vessel length density (VLD) compared to DMSO control / effect on branching compared to DMSO control: 24 h after administration
# Method: as §1, §2
# (§3) The paper disc was carefully removed, and the CAM was photographed. For the Miles assay approximately 100 μl of a 1% w/v solution of Evans Blue dye was injected in the CAM and infiltration of the dye into the blood vessels was analyzed using an Andonstar digital microscope equipped with a 60× magnification lens. If the dye infiltrated the blood vessels the test was considered positive. The photographs were later cropped to include only the CAM and analyzed using the NIH ImageJ software package as follows.
# To analyze the extent of branching the blood vessels were carefully traced in order for the ImageJ software to be able to distinguish them for the background. The traced images were opened on the ImageJ software, converted into an 8 bit image and the threshold was adjusted to exclude any possible background signal. This process gave a binary (black and white) map of the vasculature which was then skeletonized (converted into a 1 pixel wide map) and the skeleton was analyzed to determine the number of branches and junction voxels (pixels connected to more than 2 other pixels, i.e. pixels in which the map divides).
# To analyze the vascular length density and vascular density the cropped image was opened on the ImageJ software, and the Mexican Hat filter plugin was applied using a radius of 5.0. After this, the image was made binary and the Vascular Density function of the Vessel Analysis plugin was used to determine both parameters after carefully tracing the image so that only the CAM area was included on the calculation.
# To analyze the vessel the cropped image was opened on the ImageJ software, and the Mexican Hat filter plugin was applied using a radius of 5.0.
# [2] = test system: chicken embryos exposed to CoCl2; assay: rescue of embryos administered a 100-fold lethal dose of hypoxia-inducing CoCl2; assay type: in vivo; settings: CoCl2 1 M; 2.4 g/kg on Day 6
# blood vessels in the CAM [3] = assay: Miles assay (Evans Blue) / vascular permeability in the CAM; parameters: species or system Brown Leghorn chicken embryos; settings: in vivo
# Method: as §3, with “After 24 hours, the tape was removed, and the opening was further expanded until all the possible area of the CAM was exposed. The paper” for “The paper”
# [4] = single dose 40 μM (0.91 mg/kg) on Day 6, 24 h post dose
molecule,measurement,setting,value
"O=[N+]([O-])O[C@@H]1CO[C@H]2[C@@H]1OC[C@@H]2O [isosorbide, isosorbide mononitrate]",embryos that survived,chicken embryos,Two out of three
same,effect on vascular density (VD) compared to DMSO control,blood vessels in the CAM [1]; 40 μM,did not observe effects
same,effect on vessel diameter compared to DMSO control,blood vessels in the CAM [1]; 40 μM,did not observe effects
same,effect on vessel length density (VLD) compared to DMSO control,blood vessels in the CAM [1]; 40 μM,did not observe effects
COC(=O)N[C@@H](Cc1ccccc1)C(=O)N[C@@H](Cc1ccc(NS(=O)(=O)O)cc1)c1csc(-c2cccs2)n1 [Razuprotafib],embryo survival,chicken embryos,almost all embryos
same,effect on branching compared to DMSO control,blood vessels in the CAM [1]; 40 μM,no changes were observed
same,effect on vascular density (VD) compared to DMSO control,blood vessels in the CAM [1]; 40 μM,no changes were observed
same,effect on vessel diameter compared to DMSO control,blood vessels in the CAM [1]; 40 μM,no changes were observed
same,effect on vessel length density (VLD) compared to DMSO control,blood vessels in the CAM [1]; 40 μM,no changes were observed
"COC(=O)[C@H](Cn1cncn1)NC(=O)[C@H](Cn1nnnc1C)NC(=O)[C@H](Cn1nnc2ccccc21)NC(=O)C(F)(F)F [Compound 1, methyl (S)-2-((S)-2-((S)-3-(1H-benzo[d][1,2,3]triazol-1-yl)-2-(2,2,2-trifluoroacetamido)propanamido)-3-(5-methyl-1H-tetrazol-1-yl)propanamido)-3-(1H-1,2,4-triazol-1-yl)propanoate]",embryo survival,chicken embryos,almost all embryos
same,indications of hazardous tumor growth or teratogenic effects,chicken embryos; single (Day 6) dosing at 40 μM,no indications
same,mortality rates,chicken embryos; single (Day 6) dosing at 40 μM,not statistically significant
same,embryos rescued from a 100-fold lethal dose of CoCl2,[2],25%
same,integrity of vessel cell walls (Miles assay),blood vessels in the CAM [3],did not weaken
same,vascular permeability,blood vessels in the CAM [3],did not increase permeability
same,aberrant angiogenesis or vascular remodeling (vessel density/branching mapping),blood vessels in the CAM [1]; 40 μM,did not induce
same,time for which activity comparable to FDA approved vasodilators at 10 minutes was maintained,blood vessels in the CAM [1]; CAM,24 h
same,decrease in vessel length density (VLD) compared with DMSO control,blood vessels in the CAM [1]; [4],17%
same,increase in vessel diameter compared with DMSO control,blood vessels in the CAM [1]; [4],124%
same,decrease in vessel length density (VLD) compared with DMSO control,"blood vessels in the CAM [1]; single dose 40 μM (0.91 mg/kg) on Day 6, 24 h post dose, listed as Compound 2",17%
CCOC(=O)C1=C(COCCN)NC(C)=C(C(=O)OC)C1c1ccccc1Cl (centres unmarked) [amlodipine],embryos that survived,chicken embryos,Two out of three
"NLLMAAS [heptapeptide NLLMAAS, an orthosteric antagonist of ANG-1 (antiangiogenic), negative control]",effect on branching compared to DMSO control,blood vessels in the CAM [1]; 40 mM (1075 mg/Kg),did not have any effects
same,effect on vascular density (VD) compared to DMSO control,blood vessels in the CAM [1]; 40 mM (1075 mg/Kg),did not have any effects
same,effect on vessel diameter compared to DMSO control,blood vessels in the CAM [1]; 40 mM (1075 mg/Kg),did not have any effects
same,effect on vessel length density (VLD) compared to DMSO control,blood vessels in the CAM [1]; 40 mM (1075 mg/Kg),did not have any effects
B1,"effects on CAM vasculature (vessel diameter, vessel length density) compared to DMSO controls","blood vessels in the CAM [1]; 0.75 mg/Kg (proteins 18.87 μM, antibody 1 mg/mL)",did not produce any effects significantly different
